Series [1] relates to Plasmodium falciparum. Briefly: Antimalarial activity against Plasmodium falciparum NF54 assessed as inhibition of parasite growth. In kind it is functional, organism-based.
The nature of series [2]: Inhibition of Plasmodium falciparum FP2.
The subject of series [3] is Plasmodium berghei. Briefly: Antimalarial activity against liver stage of Plasmodium berghei. Format: functional, organism-based.
Series [4] deals with Plasmodium falciparum. The series can be described thus: Antimalarial activity against Plasmodium falciparum W2 assessed as inhibition of parasite growth. In kind it is functional, organism-based.
The subject of series [5] is Plasmodium falciparum. Briefly: Antimalarial activity against Plasmodium falciparum Dd2 assessed as inhibition of parasite growth. Format: functional, organism-based.
Series [6] concerns Plasmodium falciparum. Briefly: Antimalarial activity against Plasmodium falciparum 3D7 assessed as inhibition of parasite growth. Format: functional, organism-based.
The test system of series [7] is Plasmodium falciparum. The series can be described thus: Antimalarial activity against Plasmodium falciparum F32. Format: functional, organism-based.
Series [8] deals with Plasmodium falciparum. Briefly: Antimalarial activity against Plasmodium falciparum FcB1. In kind it is functional, organism-based.
Series [9] concerns Plasmodium falciparum. Briefly: Antimalarial activity against Plasmodium falciparum infected in mouse assessed as cure rate at 26 to 32 mg/kg/day administered po or ip. In kind it is functional.
The subject of series [10] is Plasmodium falciparum. The series can be described thus: Antimalarial activity against Plasmodium falciparum D10 assessed as inhibition of parasite growth. In kind it is functional, organism-based.
The subject of series [11] is Plasmodium falciparum. The series can be described thus: Antimalarial activity against chloroquine-resistant Plasmodium falciparum K1 assessed as inhibition of parasite growth. Format: functional, organism-based.
The test system of series [12] is Plasmodium falciparum. The series can be described thus: Antimalarial activity against Plasmodium falciparum infected in mouse assessed as suppression of parasitemia at 3x10 mg/kg/day, po measured at day 4 post-infection. Format: functional.
The test system of series [13] is Plasmodium falciparum. The series can be described thus: Antimalarial activity against Plasmodium falciparum infected in mouse assessed as mouse survival at 3x10 mg/kg/day, po. Format: functional.
The nature of series [14]: Inhibition of Plasmodium falciparum DPAP1 after 30 mins.
In series [15] the test system is Plasmodium falciparum. Briefly: Antimalarial activity against Plasmodium falciparum D6 assessed as inhibition of parasite growth. Format: functional, organism-based.
The nature of series [16]: Inhibition of beta-hematin formation. Format: physicochemical.

pIC50: −log10 of the molar value. Converted amounts (≈) assume the structure as drawn. Numbered stars: 1 amine (or outer) side, 2 acyl side, 3 side chain; on linkers, the order of the positions; unused ones are H or OH. Square brackets hold non-standard residues; d marks the D form. Peptide text beside a SMILES is read from it. * marks the point of attachment. hPhe = N[C@@H](CCc1ccccc1)C(=O)O; Morpholide = C1CN(*)CCO1; CO = O=C([*:1])[*:2] A value given as a limit tells only on which side of the number the result lay.

As usually defined, the pIC50 is the negative decadic logarithm of the IC50, by convention in mol/L. Take `Clc1ccc2c(NCCNC(CCN3CCCCC3)c3ccccc3)ccnc2c1` (stereo not drawn): the negative logarithm of the IC50 (pIC50) in series [1] was 8.15. Usually MIC stands for the least concentration at which growth counts as inhibited. For the compound `COc1ccc2nc3cc(Cl)ccc3c(Nc3cccc(Nc4ccnc5cc(Cl)ccc45)c3)c2c1`, the MIC in [1] turned out to be 0.25 µg/mL (≈ 0.489 µM). Compound `CC(C)C[C@H](NC(=O)c1ccc(CO[C@H]2O[C@@H]3O[C@@]4(C)CC[C@H]5[C@H](C)CC[C@@H]([C@H]2C)[C@@]35OO4)cc1)C(=O)N[C@H](/C=C/S(C)(=O)=O)CCc1ccccc1` had a negative logarithm of the IC50 (pIC50) in series [2] of 5.46. On the same count and under the same terms, the figure for `CC(C)C[C@@H](NC(=O)/C=C/c1ccccc1)C(=O)N[C@H](CCc1ccccc1)C(=O)Nc1ccnc2cc(Cl)ccc12` is 4.71; for `O=C(NCCNc1ccnc2cc(Cl)ccc12)N/N=C/c1ccc(O)c(CN2CCN(c3ccnc4cc(Cl)ccc34)CC2)c1O` it is 5.50. Regarding `COc1cc(NC(C)CCCNC2CCC3(CC2)OOC2(OO3)C3CC4CC(C3)CC2C4)c2ncccc2c1` (stereo not drawn), the figures for the negative logarithm of the IC50 (pIC50) in [3] and in series [4] were 6.48 and 7.66, respectively. As to `COc1cc(NC(C)CCCNc2ccnc3cc(Cl)ccc23)c2ncccc2c1` (stereo not drawn), the negative logarithm of the IC50 (pIC50) was 6.24 in series [5] and 6.19 in [6]. Take `CC1(C)COC2(CCC(NC3CCC(Nc4ccnc5cc(Cl)ccc45)CC3)CC2)OO1` (stereo not drawn): the pIC50 is 7.89 in series [7], 7.62 in [8] and 7.82 in series [4]. In addition, the Activity in [9] was 100%. For `CC(C)CN(NC(=O)C1CCC2(CC1)OOC1(OO2)C2CC3CC(C2)CC1C3)c1nc(C#N)ncc1Br` (stereo not drawn), the pIC50 in series [2] is 7.79.

The compound `CC(C)CN(NC(=O)C1CCC(=O)CC1)c1nc(C#N)ncc1Br` gave a negative-log IC50 (pIC50) in series [2] of 7.23. As to `Cc1ccc2c(c1)/C(=N/NC(N)=S)C(=O)N2CCNc1ccnc2cc(Cl)ccc12`, the pIC50 in [2] was 4.93; in series [10], 7.10; in series [4], 7.29. As to `COc1cc(NC(C)CCCNC(=O)c2ccc(CO[C@H]3O[C@@H]4O[C@@]5(C)CC[C@H]6[C@H](C)CC[C@@H]([C@H]3C)[C@@]46OO5)cc2)c2ncccc2c1` (stereo partly drawn), the pIC50 in series [3] is 7.17; in series [4] it was 8.29. Take `C[C@H]1[C@H](OCCNCCNc2ccnc3cc(Cl)ccc23)O[C@@H]2O[C@@]3(C)CC[C@H]4[C@H](C)CC[C@@H]1[C@@]24OO3`: the negative-log IC50 (pIC50) is 7.59 in [5], 7.69 in series [6] and 7.67 in series [10]. `C[C@@H]1CC[C@H]2C(CN3CCCCC3[C@H](O)c3cc(C(F)(F)F)nc4c(C(F)(F)F)cccc34)=C(C(F)(F)F)O[C@@H]3O[C@@]4(C)CC[C@@H]1[C@]32OO4` (stereo partly drawn): the pIC50 in series [7] was 7.80; in series [11], 7.97; in series [8], 7.76. In the case of `COc1ccc2nccc([C@@H](O)[C@@H]3C[C@@H]4CCN3C[C@@H]4CC(=O)O[C@@H]3O[C@@H]4O[C@@]5(C)CC[C@H]6[C@H](C)CC[C@@H]([C@H]3C)[C@@]46OO5)c2c1`, the pIC50 is 8.05 in series [6] and 8.02 in series [8]. Consider `CCN(CC)Cc1cc(C2CCC3(CC2)OOC2(OO3)C3CC4CC(C3)CC2C4)ccc1O` (stereo not drawn), for which, in series [12], the “inhibition (INH)” value is recorded as 99.8%. For the same compound, in [13], the Survival is more than 20 days. Besides, the negative logarithm of the IC50 (pIC50) in [11] is 8.24; in [4], 8.29. Take `CC(=O)O[C@@]1(C)CC[C@@H]2C[C@@H]1OO[C@]2(/C=C\c1ccc(Cl)cc1)c1ccccc1`: the pIC50 in [11] is 7.64.

On to `CC(C)C[C@H](NC(=O)N1CCOCC1)C(=O)N[C@@H](CCc1ccccc1)[C@@H]1OOC2(O1)C1CC3CC(C1)CC2C3` (stereo partly drawn), for which the pIC50 in series [6] is 7.45; in series [2] it was 6.29. For `CC(C)C[C@H](NC(=O)C1CCC2(CC1)OOC1(OO2)C2CC3CC(C2)CC1C3)C(=O)N[C@H](/C=C/S(=O)(=O)c1ccccc1)CCc1ccccc1` (stereo partly drawn), the pIC50 in series [6] was 7.55; in series [2], 5.74; in series [4], 7.73. The matching figures for `CC(C)C[C@H](NC(=O)C1CCC(=O)CC1)C(=O)N[C@H](/C=C/S(=O)(=O)c1ccccc1)CCc1ccccc1`: 6.54, 7.16 and 7.58. Consider `CCCCC(C(=O)COc1c(F)c(F)cc(F)c1F)n1cc([C@@](C)(NC(=O)OCC[C@@]2(CCC(=O)NCCCN3CCCC3=O)OOC3(O2)C2CC4CC(C2)CC3C4)C2CCCC2)nn1` (stereo partly drawn), for which the negative logarithm of the IC50 (pIC50) in series [14] is 5.00; in series [10] it was 8.40. The matching figures for `CCCCC(C(=O)COc1c(F)c(F)cc(F)c1F)n1cc([C@@](C)(N)C2CCCC2)nn1` (stereo partly drawn): 7.15 and 8.28. Consider `CC(C)(C[C@H](NC(=O)N1CCOCC1)C(=O)N[C@H](/C=C/S(=O)(=O)c1ccccc1)CCc1ccccc1)OC(=O)OCC[C@@]1(CCC(=O)NCCCN2CCCC2=O)OOC2(O1)C1CC3CC(C1)CC2C3` (stereo partly drawn), for which the pIC50 is 4.30 in series [2] and 6.22 in series [4]. The matching figures for `CC(C)(O)C[C@H](NC(=O)N1CCOCC1)C(=O)N[C@H](/C=C/S(=O)(=O)c1ccccc1)CCc1ccccc1`: 5.99 and 6.74.

Take `COc1ccc(C[C@H](NC(=O)OC2CCCC3(C2)OOC2(O3)C3CC4CC(C3)CC2C4)C(=O)N[C@H]2[C@@H](O)[C@H](n3cnc4c(N(C)C)ncnc43)O[C@@H]2CO)cc1` (stereo partly drawn): the negative logarithm of the IC50 (pIC50) in series [4] was 8.00. The compound `CC(C)C[C@H](NC(=O)N1CCOCC1)C(=O)N[C@H](C=O)CCc1ccccc1` ({Morpholide-CO}-Leu-[hPhe]-aldehyde) had a pIC50 in series [2] of 7.79.

On to `C[C@@H]1C(=O)C[C@H]2C[C@@H]1OO[C@@]2(C)/C=C\c1ccc(C(F)(F)F)cc1C(F)(F)F` [ARTEFLENE], for which the pIC50 in series [11] is 7.82. On to `C[C@@H]1CC[C@H]2[C@@H](C)C(=O)O[C@@H]3O[C@@]4(C)CC[C@@H]1[C@]32OO4` [ARTEMISININ], for which, in series [11], the pIC50 is 7.33. Consider `CCN(CC)CCCC(C)Nc1ccnc2cc(Cl)ccc12` (stereo not drawn) [CHLOROQUINE], for which, in [1], the minimal inhibitory concentration (MIC) is 0.125 µg/mL (≈ 0.391 µM). `Clc1ccc2c(NCCCN3CCC(NC(c4ccccn4)c4ccccn4)CC3)ccnc2c1` [DM-1157]: the figures for the pIC50 in series [5], in series [15] and in series [16] were 8.80, 9.05 and 5.80, respectively. Regarding `COc1ccc(C[C@H](N)C(=O)N[C@H]2[C@@H](O)[C@H](n3cnc4c(N(C)C)ncnc43)O[C@@H]2CO)cc1` [PUROMYCIN], the negative logarithm of the IC50 (pIC50) in series [4] is 7.38.

The values above are taken from ChEMBL document CHEMBL3600290, “From hybrid compounds to targeted drug delivery in antimalarial therapy” (Bioorg Med Chem, 2015).
